For three compounds, inhibition results are on record in ChEMBL document CHEMBL4257225, “Compounds and compounds for use in methods for treating diseases or conditions mediated by protein disulfide isomerase” (2016).

Each structure is given as a SMILES string. Activity calls are given as the source filed them. The rule behind the calls is not given here.

A word on the inhibition: it is the percentage by which the read-out fell short of the control.

The species named for one assay is Mus musculus. Kind of assay: Anti-platelet activity in mouse assessed as inhibition of laser injury-induced thrombus formation by measuring reduction in platelet accumulation in cremaster arterioles by microscopic method. Format: functional, organism-based.
Assay [1] concerns the target Protein disulfide-isomerase (Homo sapiens) (UniProt P07237). Put plainly: Inhibition of PDI in human platelet rich plasma assessed as reduction in SFLLRN peptide-induced platelet aggregation preincubated for 30 mins followed by SFLLRN addition relative to control.

Protein disulfide-isomerase (Homo sapiens), sequence (P07237 18-508 limits assumed): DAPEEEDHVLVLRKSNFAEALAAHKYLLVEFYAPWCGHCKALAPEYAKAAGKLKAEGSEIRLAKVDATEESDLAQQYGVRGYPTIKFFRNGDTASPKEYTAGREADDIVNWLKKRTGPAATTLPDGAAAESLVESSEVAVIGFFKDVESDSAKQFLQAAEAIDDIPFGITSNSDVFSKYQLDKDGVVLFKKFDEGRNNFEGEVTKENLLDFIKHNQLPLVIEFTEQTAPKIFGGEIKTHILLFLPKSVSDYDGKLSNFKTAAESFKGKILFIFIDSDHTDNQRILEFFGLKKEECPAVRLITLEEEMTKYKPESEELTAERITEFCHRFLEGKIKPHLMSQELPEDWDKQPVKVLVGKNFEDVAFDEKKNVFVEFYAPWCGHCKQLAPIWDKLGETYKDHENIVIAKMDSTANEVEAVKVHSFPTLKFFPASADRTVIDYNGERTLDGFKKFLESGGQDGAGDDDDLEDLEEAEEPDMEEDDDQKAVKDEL

For the compound `CCOC(=O)C1(CCOc2ccccc2)CCN(Cc2ccc(O)c(Cl)c2)CC1`, in the assay listed under Mus musculus, the inhibition entry was “Active”. Further, the inhibition in assay [1] was in the range of 25 to 50%.
With `CCOC(=O)C1(CCOc2ccccc2)CCN(C(=O)c2ccc(O)c(Cl)c2)CC1`, in assay [1], the inhibition stood at 100%.
Same read-out and setting: in the case of `CC(C)(C)OC(=O)C1(CCOc2ccccc2)CCN(Cc2ccc(O)c(Cl)c2)CC1` it was 100%.
